Counter-ions that a name gives are not always drawn.
Assays:
glycine receptors = assay: ionic current induced by glycine in a single neuron of the tractus solitarius nucleus, whole cell patch clamp; type: cell-based, guinea pig; set-up: key to Action (class symbol): ±: no action; +: potentiated; −: inhibited; settings: for type of effect on glycine-induced ionic currents (in words): classification, 1 mM, example 7 at 300 μM; for Action (% of control): mean ± S.E.
Protocol: In order to confirm the excellent actions of the derivatives described in the present invention on modification of glycine receptors, the actions of various morphan derivatives against ionic current induced by glycine were evaluated in a single neuron of the tractus solitarius nucleus of a guinea pig.
The isolation of a single neuron was performed according to the method described in Kay et al. (J. Neurosci. Meth., 16, 227-238, 1986). Guinea pigs, Hartley strain, 7-10 days of age, were anesthetized, bled and decapitated and the medullae were rapidly extracted. Sliced sections, thickness 400 μm, were prepared by using a microslicer. The sliced segments obtained were incubated at 37° C. for 30 minutes, and regions of the tractus solitarius nucleus were punched out under a stereoscope. The punched out specimens were trypsinized in a 100% oxygen atmosphere at 37° C. for 30-60 minutes. The trypsinized tissues were dispersed mechanically to obtain the single neurons. Measurements of the ionic currents activated by glycine were performed using the whole cell mode of the patch clamp method. The ionic currents obtained were recorded using a pen-recorder. Administration of the test compounds was performed by the Y-tube method in which the external fluid peripheral to the cells could be changed to the test drug solution within 2 msec. (Neurosci. Lett., 103, 56-63, 1989). Concentrations of the test compounds were 1 mM, except that the highly lipophilic compound of example 7 was examined at 300 μM. All data were expressed by mean±S.E.
In Table 1, the effects of the morphan derivatives on ionic currents in single neurons from the tractus solitarius nucleus, induced by glycine at 30 μM are summarized.

GABA-induced currents = GABA-induced currents in a single neuron, whole cell patch clamp; type: cell-based, guinea pig; settings: test compound 1 mM; GABA 30 μM (FIG. 1)
[1] = glycine 30 μM, test compound 1 mM
[2] = glycine 30 μM, test compound 300 μM

| Compound | type of effect on glycine-induced ionic currents (in words) (glycine receptors) | Action (class symbol) (glycine receptors; [1]) | Action (% of control) (glycine receptors; [1]) [%] | further results |
| --- | --- | --- | --- | --- |
| C1CC2CCN3CCCC3(C1)C2 (stereo not drawn) [Example 6, 5-Azatricyclo[6.3.1.0^1,5]dodecane] | potentiation action | + | 152.1 ± 16.6 |  |
| CCCC12CCCC(CCN1)C2 (stereo not drawn) [Example 5, 1-Propyl-2-azabicyclo[3.3.1]nonane] | potentiation action | + | 138.1 ± 7.0 |  |
| CN1CCC2CCCC1C2 (stereo not drawn) [Example 1, 2-Methyl-2-azabicyclo[3.3.1]nonane] | weak action | ± | 99.7 ± 1.5 |  |
| CCC12CCCC(CCN1)C2 (stereo not drawn) [Example 4, 1-Ethyl-2-azabicyclo[3.3.1]nonane] | inhibitory action | − | 70.9 ± 2.7 |  |
| CCN1CCC2CCCC1C2 (stereo not drawn) [Example 2, 2-Ethyl-2-azabicyclo[3.3.1]nonane] | potentiation action | + | 150.6 ± 14.2 | action against GABA-induced currents (GABA-induced currents): no action; rank of action on glycine-induced current (glycine receptors; glycine 30 μM): strongest enhancing action |
| CN1CCC2CCCC1C2 (stereo not drawn) (as salt: hydrochloric acid salt) [Example 1, 2-Methyl-2-azabicyclo[3.3.1]nonane] |  |  |  | melting point: 147 to 152 °C |
| C=CCN1CCC2CCCC1C2 (stereo not drawn) [Example 3, 2-Allyl-2-azabicyclo[3.3.1]nonane] | potentiation action | + | 138.9 ± 5.6 |  |
| C=CCC12CCCC(CCN1Cc1ccccc1O)C2 (stereo not drawn) [Example 7, 2-{[1-Allyl-(2-propenyl)-2-azabicyclo[3.3.1]nonane-2-yl]methyl}phenol] |  |  |  | concentration range of concentration-dependent inhibition of glycine-induced currents (glycine receptors; FIG. 2, glycine 30 μM): 10 to 300 µM; Action (class symbol) (glycine receptors; [2]): −; Action (% of control) (glycine receptors; [2]): 60.5 ± 2.7% |
